Where two headings read alike, the source gives them in different places.
Columns and labels:
[1] = system: HT29; assay: MTT cell viability, HT29; assay type: cell-based, human; conditions: Homo sapiens, HT-29, 48 hours, Mean ± SD, read-out: Growth Inhibition IC50 HT-29
Procedure: (§1) Cell lines used in the present disclosure include human liver carcinonoma cell line HepG2, human bladder carcinoma cell line BFTC905, human colon carcinoma cell lines HT29 and SW480, and human leukemia cell lines HL60 and Jurkat T, and mouse lymphocytic leukemia cell line L1210. Each cell lines were cultured and maintained in Dulbecco's modified Eagle media (DMEM) or RPMI 1640 medium supplemented with 10% heat inactivated fetal bovine serum (FBS), 1% penicillin/streptomycin, in 5% CO2195% air at 37° C.
(§2) The absorbance of the solution at 540 nm was measured by spectrophotometer. The IC50 values were defined as the drug concentration that inhibit 50% cell growth by setting the viability of untreated cells as 100%. Values were represented as the mean±SD from at least 3 independent experiments.
(§3) Effects of the compounds of formula (I) of this disclosure, specifically, NOC15 and NC 15, on HepG2 cells (liver carcinoma), BFTC905 (bladder carcinoma), HT29 (colon carcinoma), SW480 (colon carcinoma) and HL60 (leukemia) were assessed by cell viability analysis in accordance with procedures described above, in which compound 2, and other known anti-cancer agents including 5-FU, cisplatin and doxorubicin were respectively used as positive controls.

[2] = system: HL60; assay: MTT cell viability, HL60; assay type: cell-based, human
Procedure: as §1, §2, §3

[3] = system: HepG2 cells; assay: Cell cycle distribution by flow cytometry (PI), HepG2; assay type: cell-based, human; conditions: 48 hours, FIG. 2
Procedure: Cultured cells with or without pre-treatment of the compounds of this invention (i.e., norcantharidin, NOC15, or NC15, 10-60 μM for 48 hours) were harvested from the cultured media and fixed by incuating with 75% iced cold ehtanol and kept at −20° C. until analysis. The fixed cells were then washed with PBS, and treated with […] (200 μg/mL, 500 μL) for about 1.5 hour at 37° C. Precipitated cells were collected by centrifugation and re-suspended in a buffer solution containing propidium iodine (PI) (40 μg/ml) and incubated in the dark for 20 min at 20-25° C. before being subject to flow cytometry analysis, where cell numbers at respective cell cycles were determined.
HepG2 cells were treated with 10-60 μM of the test compounds for 48 hours, then cell cycle distribution and apoptosis analysis was analyzed by flow cytometry, with the subG1 phase being stained with propidium idoine (PI). Results are illustrated in FIGS. 2 and 3.

[4] = system: human lymphoblast cells (NHL); assay: Cell viability (CCK-8), normal lymphoblast cells; assay type: cell-based; conditions: 24 hours (NC15: 24 and 48 hours), FIG. 4, FIG. 6
Procedure: The cell viability assays were performed in 96-well plates. The 100 μl of cell suspensions (NHL or Jurkat T cells, 5×10^3 cells/well, serum-free medium) were inoculated in the wells and the plates were pre-incubated in the incubator for 24 hours (pre-incubated for 22 hours and stimulated with PMA 5 ng/ml plus ionomycin 250 ng/ml for 2 hours in PMAI-treated groups). Then, various concentrations of norcantharidin (0, 2, 4, 15, 30 and 60 μM) or NOC15 (0, 0.25, 0.5, 1, 2 and 4 μM) were added into the culture media in the wells. After 24 hours of incubation, the cell viability of NHL and Jurkat T cells was measured by cell counting kit-8 (CCK-8, Sigma). The half maximal inhibitory concentrations (IC50) of norcantharidin and NOC15 on Jurkat T cells and NHL cells were calculated.
In this example, a model of phorbol 12-myristate 13-acetate plus ionomycin (PMAI) activated leukemia Jurkat T cells model was employed to investigate the effects of the NOC15 on human leukemia cells (Jurkat T cells) and human lymphoblast cells (NHL).

[5] = system: L1210 cells; assay: Syngeneic L1210 tumor in vivo therapy; design: species or system DBA/2 mice
Procedure: The DBA/2 mice (about 7 weeks old, 18-22 g) were obtained from BioLASCO Taiwan Co., Ltd. All mice were housed in specific pathogen-free condition with ad libitum access to water and laboratory chow. A solution of L1210 cells was injected into the subcutaneous tissue to establish a syngeneic tumor. Alternatively, the L1210 cells was injected peritoneally. All animal experiments were performed in accordance with the guidelines of the Animal Welfare Committee of Taipei Veterans General Hospital (Taiwan, R.O.C.).
(§4) To inoculate tumor, L1210 cells (1×10^6 cells per injection) were injected either subcutaneously or intraperitoneally to lab animals to generate tumors on day 1. After 7 days, NOC15 or NC15 (diluted in normal saline) was administered intra-peritoneally at a dose of 18 mg/kg every day for 7 days. The average body weight (BW) of the animals was measured daily.
After treatment, mice were sacrificed, and their tumors, livers and spleens were harvested and weighted, respectively; and white blood cells (WBC) counts were also measured.
(§5) Mice were inoculated with L1210 tumor cells in accordance with the procedures described in the section of “Materials and Methods.” For in vivo therapy, animals were given 18 mg/Kg NOC15 or NC15 by intra-peritoneal route, for a period of at least 7 days. Tumor size, animal body weight, respective weights of liver and spleen, as well as the white blood cell count of each animal were then measured respectively at the indicated time. Results are depicted in FIGS. 8 to 11, respectively.

[6] = Body weight of treated animals; assay type: in vivo, mice; conditions: 18 mg/Kg, compared with healthy normal control, FIG. 11
Procedure: as §4, §5

[7] = system: L1210 cells; assay: Ex vivo growth of leukemia cells (L1210); assay type: cell-based, mouse; conditions: read-out: concentration suppressing ex vivo growth of L1210 cells for about 50%

CC(C)=CCCC(C)=CCCC(C)=CCN1C(=O)C2C3CCC(O3)C2C1=O (stereo not drawn) [Compound 18, N-farnesyl-7-oxabicyclo[2.2.1]heptane-2,3-dicarboximide]
IC50 [1]: 14.8 ± 1.9 µM
IC50 ([2]; Homo sapiens, HL-60, MTT, 48 hours, Mean ± SD, read-out: Growth Inhibition IC50 HL-60): 79.8 ± 1.1 µM
response of leukemia cell line HL60 to treatment ([2]; in words, from Table 1): did respond
fraction of apoptotic cells (subG1) ([3]; 10 μM): 3.7%
fraction of apoptotic cells (subG1) ([3]; 60 μM): 19.8%
accumulation of cells in G2/M phase ([3]; 10-60 μM): inducing the accumulation of cells in G2/M phase
cytotoxicity to normal lymphatic/lymphoblast cells (NHL) [4]: did not possess significant cytotoxicity
weight of liver ([5]; IP-inoculated tumor, 18 mg/kg i.p., FIG. 9B): improved significantly
weight of spleen ([5]; IP-inoculated tumor, 18 mg/kg i.p., FIG. 9C): improved significantly
increase in life span ([5]; SC-inoculated tumors, 18 mg/kg i.p. daily, FIG. 8A): about 40%
weight of s.c. tumor ([5]; SC-inoculated, 18 mg/kg i.p., FIG. 9A): Significant reduction
white blood cell (WBC) counts ([5]; day 14, SC- or IP-injected L1210, 18 mg/kg i.p., FIG. 10): significant reductions
total body weight along the course of treatment [6]: eventually brought the animal body weight to the level same as the control
IC50 ([7]; L1210, time not given, listed as NC15): ~2.6 µM
IC50 ([7]; Mus musculus, L1210, L1210, time not given): ~1.6 µM
